Assay results taken from patent US20090069324A1, “CHEMICAL INHIBITORS OF BFL-1 AND RELATED METHODS” (The Burnham Institute, priority 2007, published 2009).

Tests used:
Microsomal stability = assay type: in vitro ADME; conditions: rat liver microsomes, 37.5° C.
Method: CID-779754 (MLS-0067130) has a metabolic half life of >60 min in the presence of rat liver microsomes when incubated at 37.5° C. (FIG. 6A), with 64% of the compound remaining at 1 hour. The plasma stability of CID-779754 is also good, with 79% remaining after incubating at 37.5° C. for 1 hour in fresh rat plasma (FIG. 6B).

[1] = system: cord blood derived human mast cells (CBMCs); experiment: LDH release cytotoxicity assay; assay type: cell-based
Method: To investigate whether a Bfl-1 inhibitor is cytotoxic to cord blood derived human mast cells (CBMCs), a […] assay based on the measurement of lactate dehydrogenase (LDH) activity is used. CBMC are cultured with various concentrations of the Bfl-1 inhibitor, and LDH release into the culture supernatant is measured. […] The positive control in FIG. 8 is a control included in the LDH kit. Thus, CID-779754 is not cytotoxic to in vitro developed human mast cells.

Bfl-1 = target: T1, Bfl-1 (Homo sapiens, UniProt Q16548); experiment: Bfl-1 fluorescence polarization assay (FPA/FP), competition with FITC-Bid BH3 peptide; assay type: binding; conditions: for Bfl-1 FP assay, activity in words: Bfl-1/FITC-Bid
T1 construct: lacking their C-terminal transmembrane domains (approximately last 20 amino-acids); made in house; host or cells: XL-1 Blue cells (E. coli), pGEX 4T-1
T1 sequence (Q16548 1-155 limits assumed): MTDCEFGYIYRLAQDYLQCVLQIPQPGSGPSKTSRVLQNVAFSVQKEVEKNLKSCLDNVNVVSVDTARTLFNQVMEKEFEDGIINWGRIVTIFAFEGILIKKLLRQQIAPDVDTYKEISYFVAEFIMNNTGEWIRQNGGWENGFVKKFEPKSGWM

CN(C)C1=C(Cl)C(=O)N(c2ccc(Cl)c(Cl)c2)C1=O [CID-779754, 3-chloro-1-(3,4-dichlorophenyl)-4-(dimethylamino)-1H-pyrrole-2,5-dione]
compound remaining at 1 hour (Microsomal stability): 64% | half-life (Microsomal stability; read-out: metabolic half life): > 1 h | cytotoxicity (LDH release) ([1]; 0.1-100 μM, n=4 donors): no cytoxicity | toxicity to normal human cells ([1]; normal human cells): not toxic to normal human cells | Bfl-1 FP assay, activity in words (Bfl-1): binds reversibly and competes | Bfl-1 FP assay, activity in words (Bfl-1; listed as MLS-0067130): equipotent with CID-1180676 | IC50 (Bfl-1; Bfl-1 FP IC50 (uM), Tables 3-5): 0.46 µM
